Source: the NIST ThermoML archive (doi:10.1016/j.jct.2017.03.016)
± gives the expanded uncertainty stated by the source.

Key:
[1] = refractive index (Na D-line) (dimensionless); wn = mass fraction of the nth substance listed; settings: 100 kPa, Liquid, Standard Abbe refractometry
[2] = wn = mass fraction of the nth substance listed; settings: for surface tension liquid-gas: Maximal bubble pressure; for mass density: 100 kPa, Liquid, Vibrating tube method

CCn1cc[n+](CCOC)c1.N#C[N-]C#N [1-ethyl-3-(2-methoxyethyl)imidazolium dicyanamide] + O
Settings | mass density, [2] [kg/m3] | refractive index, [1] | surface tension liquid-gas, [2] [mN/m]
298.15 K, w2 = 0.00031 | – | – | 51.1 ± 0.5
298.15 K, w2 = 0.00148 | 1113.35 ± 2.3 | 1.5049 ± 0.0031 | –
298.15 K, w2 = 0.00175 | – | – | 51.3 ± 0.5
298.15 K, w2 = 0.00277 | 1113.18 ± 2.3 | 1.5045 ± 0.0031 | –
298.15 K, w2 = 0.00317 | – | – | 51.7 ± 0.5
298.15 K, w2 = 0.00434 | 1112.96 ± 2.3 | 1.5041 ± 0.0031 | –
298.15 K, w2 = 0.00461 | – | – | 52 ± 0.5
298.15 K, w2 = 0.0055 | 1112.77 ± 2.3 | 1.5037 ± 0.0031 | –
298.15 K, w2 = 0.00609 | – | – | 52.3 ± 0.5
298.15 K, w2 = 0.00719 | 1112.46 ± 2.3 | 1.5033 ± 0.0031 | –
303.15 K, w2 = 0.00031 | – | – | 50.8 ± 0.5
303.15 K, w2 = 0.00148 | 1109.96 ± 2.3 | 1.5036 ± 0.0031 | –
303.15 K, w2 = 0.00175 | – | – | 51.1 ± 0.5
303.15 K, w2 = 0.00277 | 1109.78 ± 2.3 | 1.5032 ± 0.0031 | –
303.15 K, w2 = 0.00317 | – | – | 51.4 ± 0.5
303.15 K, w2 = 0.00434 | 1109.57 ± 2.3 | 1.5028 ± 0.0031 | –
303.15 K, w2 = 0.00461 | – | – | 51.7 ± 0.5
303.15 K, w2 = 0.0055 | 1109.37 ± 2.3 | 1.5024 ± 0.0031 | –
303.15 K, w2 = 0.00609 | – | – | 52 ± 0.5
303.15 K, w2 = 0.00719 | 1109.06 ± 2.3 | 1.5019 ± 0.0031 | –
308.15 K, w2 = 0.00031 | – | – | 50.5 ± 0.5
308.15 K, w2 = 0.00148 | 1106.58 ± 2.3 | 1.5024 ± 0.0031 | –
308.15 K, w2 = 0.00175 | – | – | 50.8 ± 0.5
308.15 K, w2 = 0.00277 | 1106.41 ± 2.3 | 1.5019 ± 0.0031 | –
308.15 K, w2 = 0.00317 | – | – | 51.1 ± 0.5
308.15 K, w2 = 0.00434 | 1106.19 ± 2.3 | 1.5015 ± 0.0031 | –
308.15 K, w2 = 0.00461 | – | – | 51.4 ± 0.5
308.15 K, w2 = 0.0055 | 1106 ± 2.3 | 1.501 ± 0.0031 | –
308.15 K, w2 = 0.00609 | – | – | 51.7 ± 0.5
308.15 K, w2 = 0.00719 | 1105.69 ± 2.3 | 1.5006 ± 0.0031 | –
313.15 K, w2 = 0.00031 | – | – | 50.2 ± 0.5
313.15 K, w2 = 0.00148 | 1103.23 ± 2.3 | 1.5012 ± 0.0031 | –
313.15 K, w2 = 0.00175 | – | – | 50.5 ± 0.5
313.15 K, w2 = 0.00277 | 1103.05 ± 2.3 | 1.5007 ± 0.0031 | –
313.15 K, w2 = 0.00317 | – | – | 50.8 ± 0.5
313.15 K, w2 = 0.00434 | 1102.83 ± 2.3 | 1.5002 ± 0.0031 | –
313.15 K, w2 = 0.00461 | – | – | 51.1 ± 0.5
313.15 K, w2 = 0.0055 | 1102.64 ± 2.3 | 1.4996 ± 0.0031 | –
313.15 K, w2 = 0.00609 | – | – | 51.4 ± 0.5
313.15 K, w2 = 0.00719 | 1102.33 ± 2.3 | 1.4992 ± 0.0031 | –
318.15 K, w2 = 0.00031 | – | – | 49.9 ± 0.5
318.15 K, w2 = 0.00148 | 1099.89 ± 2.3 | 1.4996 ± 0.0031 | –
318.15 K, w2 = 0.00175 | – | – | 50.2 ± 0.5
318.15 K, w2 = 0.00277 | 1099.72 ± 2.3 | 1.4992 ± 0.0031 | –
318.15 K, w2 = 0.00317 | – | – | 50.5 ± 0.5
318.15 K, w2 = 0.00434 | 1099.5 ± 2.3 | 1.4987 ± 0.0031 | –
318.15 K, w2 = 0.00461 | – | – | 50.8 ± 0.5
318.15 K, w2 = 0.0055 | 1099.3 ± 2.3 | 1.4982 ± 0.0031 | –
318.15 K, w2 = 0.00609 | – | – | 51.1 ± 0.5
318.15 K, w2 = 0.00719 | 1098.99 ± 2.3 | 1.4979 ± 0.0031 | –
323.15 K, w2 = 0.00031 | – | – | 49.6 ± 0.5
323.15 K, w2 = 0.00148 | 1096.58 ± 2.3 | 1.4984 ± 0.0031 | –
323.15 K, w2 = 0.00175 | – | – | 49.9 ± 0.5
323.15 K, w2 = 0.00277 | 1096.4 ± 2.3 | 1.498 ± 0.0031 | –
323.15 K, w2 = 0.00317 | – | – | 50.2 ± 0.5
323.15 K, w2 = 0.00434 | 1096.18 ± 2.3 | 1.4975 ± 0.0031 | –
323.15 K, w2 = 0.00461 | – | – | 50.6 ± 0.5
323.15 K, w2 = 0.0055 | 1095.98 ± 2.3 | 1.497 ± 0.0031 | –
323.15 K, w2 = 0.00609 | – | – | 50.8 ± 0.5
323.15 K, w2 = 0.00719 | 1095.66 ± 2.3 | 1.4965 ± 0.0031 | –
328.15 K, w2 = 0.00031 | – | – | 49.4 ± 0.5
328.15 K, w2 = 0.00148 | 1093.27 ± 2.3 | 1.4971 ± 0.0031 | –
328.15 K, w2 = 0.00175 | – | – | 49.7 ± 0.5
328.15 K, w2 = 0.00277 | 1093.1 ± 2.3 | 1.4966 ± 0.0031 | –
328.15 K, w2 = 0.00317 | – | – | 50 ± 0.5
328.15 K, w2 = 0.00434 | 1092.88 ± 2.3 | 1.496 ± 0.0031 | –
328.15 K, w2 = 0.00461 | – | – | 50.4 ± 0.5
328.15 K, w2 = 0.0055 | 1092.68 ± 2.3 | 1.4955 ± 0.0031 | –
328.15 K, w2 = 0.00609 | – | – | 50.6 ± 0.5
328.15 K, w2 = 0.00719 | 1092.36 ± 2.3 | 1.4949 ± 0.0031 | –
333.15 K, w2 = 0.00031 | – | – | 49.1 ± 0.5
333.15 K, w2 = 0.00148 | 1090 ± 2.3 | 1.4954 ± 0.0031 | –
333.15 K, w2 = 0.00175 | – | – | 49.5 ± 0.5
333.15 K, w2 = 0.00277 | 1089.82 ± 2.3 | 1.495 ± 0.0031 | –
333.15 K, w2 = 0.00317 | – | – | 49.8 ± 0.5
333.15 K, w2 = 0.00434 | 1089.59 ± 2.3 | 1.4945 ± 0.0031 | –
333.15 K, w2 = 0.00461 | – | – | 50.1 ± 0.5
333.15 K, w2 = 0.0055 | 1089.4 ± 2.3 | 1.4939 ± 0.0031 | –
333.15 K, w2 = 0.00609 | – | – | 50.4 ± 0.5
333.15 K, w2 = 0.00719 | 1089.08 ± 2.3 | 1.4934 ± 0.0031 | –
338.15 K, w2 = 0.00031 | – | – | 48.8 ± 0.5
338.15 K, w2 = 0.00148 | 1086.74 ± 2.3 | 1.4941 ± 0.0031 | –
338.15 K, w2 = 0.00175 | – | – | 49.2 ± 0.5
338.15 K, w2 = 0.00277 | 1086.56 ± 2.3 | 1.4935 ± 0.0031 | –
338.15 K, w2 = 0.00317 | – | – | 49.5 ± 0.5
338.15 K, w2 = 0.00434 | 1086.33 ± 2.3 | 1.4929 ± 0.0031 | –
338.15 K, w2 = 0.00461 | – | – | 49.8 ± 0.5
338.15 K, w2 = 0.0055 | 1086.13 ± 2.3 | 1.4923 ± 0.0031 | –
338.15 K, w2 = 0.00609 | – | – | 50.1 ± 0.5
338.15 K, w2 = 0.00719 | 1085.81 ± 2.3 | 1.4919 ± 0.0031 | –
